Like-named read-outs stand apart in the source and are kept apart here.
Assays:
[1] = tested on: Pythium aphanidermatum zoospores; assay: Example 3: hydrogen peroxide alone and hydrolase enzyme alone, 12 days incubation; format: cell-based
Procedure: Tests were conducted on fescue leaf blades. […] Two agar plugs containing Pythium aphanidermatum mycelium were placed in the jar containing the fescue leaves and allowed to incubate for 12 days. Ten jars were used in total. […] Each of these jars was subject to the following hydrogen peroxide treatments: […] The remaining five jars were used for testing the effect of hydrolase enzyme alone. Each of these jars was subject to the following enzyme treatments: […] (2) 0.016% enzyme v/v concentration; (3) 0.0016% enzyme v/v concentration; […]

[2] = tested on: Pythium aphanidermatum zoospores; assay: Example 5: enzyme and hydrogen peroxide, alone and combined; format: cell-based
Procedure: (§1) Tests were conducted on fescue leaf blades. […] Two agar plugs containing Pythium aphanidermatum mycelium were placed in the jar containing the fescue leaves and allowed to incubate for 7 days.
(§2) A 1.0 ml aliquot was removed from each treatment and streaked onto potato dextrose agar.

[3] = tested on: Pythium aphanidermatum zoospores; assay: Example 4: hydrogen peroxide alone and enzyme alone, 8 days incubation; format: cell-based
Procedure: Tests were conducted on fescue leaf blades. […] Eleven jars were used in total. […] The remaining six jars were used for testing the effect of hydrolase enzyme alone. Each of these jars was subject to the following enzyme treatments: (1) untreated; (2) 0.16% enzyme v/v concentration; (3) 0.088% enzyme v/v concentration; […] (5) 0.0142% enzyme v/v concentration; and (6) 0.0124% enzyme v/v concentration.

[4] = tested on: Pythium aphanidermatum zoospores; assay: Example 9: enzyme and hydrogen peroxide, alone and combined; format: cell-based
Procedure: as §1
A 1.0 mL aliquot was removed from each treatment and streaked onto potato dextrose agar.

[5] = tested on: Pythium aphanidermatum zoospores; assay: Example 8: enzyme and hydrogen peroxide, alone and combined; format: cell-based
Procedure: as §1, §2

[6] = tested on: Pythium aphanidermatum zoospores; assay: Example 6: enzyme and hydrogen peroxide, alone and combined; format: cell-based
Procedure: as §1, §2

[7] = tested on: Pythium aphanidermatum zoospores; assay: Example 7: enzyme and hydrogen peroxide, confirmation of Example 6
Procedure: Tests were conducted on fescue leaf blades. Five one-inch long fescue leaf blades were placed in 100 ml water in a 250 ml jar and sterilized for 2 consecutive days for 20 min. Two agar plugs containing Pythium aphanidermatum mycelium were placed in the jar containing the fescue leaves and allowed to incubate for 7 days.
A 1.0 ml aliquot was removed from each treatment and streaked onto potato dextrose agar. […] After three days the plates were examined for Pythium growth.

[8] = tested on: Pythium aphanidermatum zoospores
Procedure: Tests were conducted on fescue leaf blades. […] Two agar plugs containing Pythium aphanidermatum mycelium were placed in the jar containing the fescue leaves and allowed to incubate for 5 days.
A 1.0 ml aliquot was removed from each treatment and streaked onto potato dextrose agar. […] After five days the plates were examined for Pythium growth.

[9] = 0.003% hydrogen peroxide v/v concentration
[10] = 0.006% hydrogen peroxide v/v concentration
[11] = 0.012% hydrogen peroxide v/v concentration
[12] = 0.03% hydrogen peroxide v/v concentration
[13] = 0.014% hydrogen peroxide v/v concentration
[14] = 0.016% hydrogen peroxide v/v concentration
[15] = 0.018% hydrogen peroxide v/v concentration
[16] = 0.02% hydrogen peroxide v/v concentration
[17] = 0.0003% hydrogen peroxide v/v concentration

With `OO` [hydrogen peroxide] the “% of Potato Dextrose Sugar Agar Plate Covered with Pythium” value [1, 9] was 100%, the “Number of plates (4 reps) with Pythium growth after 3 days” value (shortened to “Number of plates (4 reps) … after 3 days”) [1, 9] was 4 and the “% of Potato Dextrose Sugar Agar Plate Covered with Pythium” value [1, 10] was 50-90%. The “Number of plates (4 reps) … after 3 days” value [1, 10] was 4, the “% of Potato Dextrose Sugar Agar Plate Covered with Pythium” value [1, 11] was <50% and the “Number of plates (4 reps) … after 3 days” value [1, 11] was 4. The “% of Potato Dextrose Sugar Agar Plate Covered with Pythium” value [1, 12] was 0%, the “Number of plates (4 reps) … after 3 days” value [1, 12] was 0 and the “Pythium growth on plates” value ([1]; all tested concentrations of hydrogen peroxide except 0.03% v/v) was “grew on all plates”. For the same compound, the “% of Potato Dextrose Sugar Agar Plate Covered with Pythium” value [2, 9] was 100%, the “Number of plates (4 reps) … after 3 days” value [2, 9] was 4 and the “% of Potato Dextrose Sugar Agar Plate Covered with Pythium” value [2, 13] was 71.25%. For the same compound, the “Number of plates (4 reps) … after 3 days” value [2, 13] was 4, the “% of Potato Dextrose Sugar Agar Plate Covered with Pythium” value [3, 11] was 36.25% and the “% of Potato Dextrose Sugar Agar Plate Covered with Pythium” value [3, 13] was 60%. For the same compound, the “% of Potato Dextrose Sugar Agar Plate Covered with Pythium” value [3, 14] was 0%, the “% of Potato Dextrose Sugar Agar Plate Covered with Pythium” value [3, 15] was 0% and the “% of Potato Dextrose Sugar Agar Plate Covered with Pythium” value [4, 13] was 100%. The “Number of plates (4 reps) … after 3 days” value [4, 13] was 4, the “% of Potato Dextrose Sugar Agar Plate Covered with Pythium” value [4, 14] was 63.75% and the “Number of plates (4 reps) … after 3 days” value [4, 14] was 4. The “% of Potato Dextrose Sugar Agar Plate Covered with Pythium” value [4, 15] was 91.25%, the “Number of plates (4 reps) … after 3 days” value [4, 15] was 4 and the “% of Potato Dextrose Sugar Agar Plate Covered with Pythium” value [4, 16] was 25%. The “Number of plates (4 reps) … after 3 days” value [4, 16] was 4, the “% of Potato Dextrose Sugar Agar Plate Covered with Pythium” value [5, 13] was 90% and the “Number of plates (4 reps) … after 3 days” value [5, 13] was 4. The “% of Potato Dextrose Sugar Agar Plate Covered with Pythium” value [5, 16] was 56.3%, the “Number of plates (4 reps) … after 3 days” value [5, 16] was 4 and the “% of Potato Dextrose Sugar Agar Plate Covered with Pythium” value [6, 13] was 17.5%. For the same compound, the “Number of plates (4 reps) … after 3 days” value [6, 13] was 1, the “% of Potato Dextrose Sugar Agar Plate Covered with Pythium” value [6, 14] was 10% and the “Number of plates (4 reps) … after 3 days” value [6, 14] was 1. For the same compound, the “% of Potato Dextrose Sugar Agar Plate Covered with Pythium” value [6, 15] was 17.5%, the “Number of plates (4 reps) … after 3 days” value [6, 15] was 1 and the “% of Potato Dextrose Sugar Agar Plate Covered with Pythium” value [7, 13] was 72.5%. The “Number of plates (4 reps) … after 3 days” value [7, 13] was 4, the “% of Potato Dextrose Sugar Agar Plate Covered with Pythium” value [7, 14] was 38.8% and the “Number of plates (4 reps) … after 3 days” value [7, 14] was 4. The “% of Potato Dextrose Sugar Agar Plate Covered with Pythium” value [7, 15] was 85.8%, the “Number of plates (4 reps) … after 3 days” value [7, 15] was 4 and the “% Reduction of Pythium” value [8, 17] was 0%. For the same compound, the “Number of plates (4 reps) with Pythium growth after 5 days” value (“Number of plates (4 reps) … after 5 days” for short) [8, 17] was 4, the “% Reduction of Pythium” value [8, 9] was 0% and the “Number of plates (4 reps) … after 5 days” value [8, 9] was 4. For the same compound, the “% Reduction of Pythium” value [8, 12] was 75%, the “Number of plates (4 reps) … after 5 days” value [8, 12] was 1 and the “% Reduction of Pythium” value ([8]; 0.3% hydrogen peroxide v/v concentration) was 100%. The “% Reduction of Pythium” value ([8]; 1.5% hydrogen peroxide v/v concentration) was 100%.
